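These data come from cells grown in 96-well plates and exposed to compound for 48 hours at five concentrations. Abbreviation: GI50, concentration required for 50% inhibition of growth.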 The source made the active and inactive calls. Cut-off read from the data, not from the text of the source: active = GI50 up to about 1.1 µM and inactive = higher.
Experiments:
Test in all cases: DTP human tumour cell line panel, 48 h
SNB-75 = tested on: SNB-75
KM12 = tested on: KM12
K562 = tested on: K562
A498 = tested on: A498
CAKI-1 = tested on: CAKI-1
M14 = tested on: M14
A549 = tested on: A549
SNB-19 = tested on: SNB-19
786-0 = tested on: 786-0
PC-3 = tested on: PC-3
U-251 = tested on: U-251
SK-MEL-5 = tested on: SK-MEL-5
TK-10 = tested on: TK-10
SF-295 = tested on: SF-295
OVCAR-8 = tested on: OVCAR-8
LOX IMVI = tested on: LOX IMVI
UACC-62 = tested on: UACC-62
SF-268 = tested on: SF-268
COLO 205 = tested on: COLO 205
HL-60 = tested on: HL-60

SMILES	GI50 (SNB-75)	GI50 (KM12)	GI50 (K562)	GI50 (A498)	GI50 (CAKI-1)	GI50 (M14)	GI50 (A549)	GI50 (SNB-19)	GI50 (786-0)	GI50 (PC-3)	GI50 (U-251)	GI50 (SK-MEL-5)	GI50 (TK-10)	GI50 (SF-295)	GI50 (OVCAR-8)	GI50 (LOX IMVI)	GI50 (UACC-62)	GI50 (SF-268)	GI50 (COLO 205)	GI50 (HL-60)
COc1cc(Nc2cc(Cl)cc(Cl)c2)nc(N)n1	15.5 µM (inactive)	17.1 µM (inactive)	30.7 µM (inactive)	21.9 µM (inactive)	20.4 µM (inactive)	20.1 µM (inactive)	19.9 µM (inactive)	22.9 µM (inactive)	17.4 µM (inactive)	20.8 µM (inactive)	15.2 µM (inactive)	15.3 µM (inactive)	21.6 µM (inactive)	18.6 µM (inactive)	18.9 µM (inactive)	16.3 µM (inactive)	17.1 µM (inactive)	19.5 µM (inactive)	23.1 µM (inactive)	–
COc1cc2c(c3nc4ccccc4nc13)-c1ccc(SC)c(=O)cc1[C@@H](NC(C)=O)CC2	0.0313 µM (active)	0.0193 µM (active)	0.0328 µM (active)	0.82 µM (active)	1.83 µM (inactive)	0.0617 µM (active)	0.377 µM (active)	0.0475 µM (active)	0.115 µM (active)	0.0479 µM (active)	0.0345 µM (active)	0.0347 µM (active)	–	0.216 µM (active)	0.0815 µM (active)	0.0542 µM (active)	0.0373 µM (active)	0.144 µM (active)	0.0262 µM (active)	–
CC(=O)OC(C)c1cc2c(s1)C(=O)c1sccc1C2=O (stereo not given)	1.29 µM (inactive)	1.75 µM (inactive)	2.69 µM (inactive)	2.33 µM (inactive)	3.14 µM (inactive)	0.14 µM (active)	1.17 µM (inactive)	1.29 µM (inactive)	4.45 µM (inactive)	2.19 µM (inactive)	0.944 µM (active)	0.139 µM (active)	1.85 µM (inactive)	0.851 µM (active)	1.81 µM (inactive)	0.446 µM (active)	–	0.989 µM (active)	1.89 µM (inactive)	1.74 µM (inactive)
CC1CN=C(N(C)C(=O)Nc2ccc(Cl)cc2)S1 (stereo not given)	> 100 µM (inactive)	4.72 µM (inactive)	8.61 µM (inactive)	40.1 µM (inactive)	3.64 µM (inactive)	1.72 µM (inactive)	16.7 µM (inactive)	49 µM (inactive)	19.5 µM (inactive)	15.7 µM (inactive)	13.3 µM (inactive)	9.04 µM (inactive)	29.1 µM (inactive)	5.14 µM (inactive)	45.7 µM (inactive)	20.2 µM (inactive)	–	41.5 µM (inactive)	13.4 µM (inactive)	15.7 µM (inactive)
COc1cc(OC)c(/C=N/N=C(\N)NO)c(OC)c1	0.0255 µM (active)	0.787 µM (active)	41.6 µM (inactive)	> 100 µM (inactive)	> 100 µM (inactive)	95.5 µM (inactive)	60.8 µM (inactive)	> 100 µM (inactive)	> 100 µM (inactive)	> 100 µM (inactive)	> 100 µM (inactive)	> 100 µM (inactive)	> 100 µM (inactive)	33 µM (inactive)	> 100 µM (inactive)	> 100 µM (inactive)	25.6 µM (inactive)	> 100 µM (inactive)	> 100 µM (inactive)	–
CCOC(=O)/C(C(=O)Nc1ccc(Cl)cc1)=C(/N)N1CCOCC1	> 100 µM (inactive)	> 100 µM (inactive)	> 100 µM (inactive)	> 100 µM (inactive)	> 100 µM (inactive)	> 100 µM (inactive)	> 100 µM (inactive)	> 100 µM (inactive)	> 100 µM (inactive)	> 100 µM (inactive)	> 100 µM (inactive)	–	> 100 µM (inactive)	> 100 µM (inactive)	> 100 µM (inactive)	> 100 µM (inactive)	> 100 µM (inactive)	> 100 µM (inactive)	> 100 µM (inactive)	> 100 µM (inactive)
Brc1ccc(/N=N/N2CCCCC2)cc1	41.9 µM (inactive)	27 µM (inactive)	27.4 µM (inactive)	57.5 µM (inactive)	88.1 µM (inactive)	85.9 µM (inactive)	–	> 100 µM (inactive)	44.3 µM (inactive)	35.2 µM (inactive)	54 µM (inactive)	34.5 µM (inactive)	59.2 µM (inactive)	35.6 µM (inactive)	45.6 µM (inactive)	35.7 µM (inactive)	72.9 µM (inactive)	66.1 µM (inactive)	69.3 µM (inactive)	–
CC(Cc1ccc(Cl)cc1Cl)NO (stereo not given)	94 µM (inactive)	> 100 µM (inactive)	83.9 µM (inactive)	> 100 µM (inactive)	> 100 µM (inactive)	> 100 µM (inactive)	> 100 µM (inactive)	> 100 µM (inactive)	> 100 µM (inactive)	> 100 µM (inactive)	> 100 µM (inactive)	95.7 µM (inactive)	> 100 µM (inactive)	> 100 µM (inactive)	> 100 µM (inactive)	> 100 µM (inactive)	> 100 µM (inactive)	> 100 µM (inactive)	> 100 µM (inactive)	–
COc1cc(Nc2cnc3cc(F)c(F)cc3n2)cc(OC)c1OC	> 100 µM (inactive)	69.3 µM (inactive)	–	> 100 µM (inactive)	> 100 µM (inactive)	> 100 µM (inactive)	> 100 µM (inactive)	> 100 µM (inactive)	> 100 µM (inactive)	> 100 µM (inactive)	> 100 µM (inactive)	> 100 µM (inactive)	> 100 µM (inactive)	> 100 µM (inactive)	> 100 µM (inactive)	40 µM (inactive)	> 100 µM (inactive)	> 100 µM (inactive)	> 100 µM (inactive)	24.9 µM (inactive)
COC(=O)[C@H]1C=NN[C@@H]1C(=O)N1[C@H]2CC3CC[C@@]2(CS1(=O)=O)C3(C)C	–	> 100 µM (inactive)	> 100 µM (inactive)	> 100 µM (inactive)	> 100 µM (inactive)	> 100 µM (inactive)	> 100 µM (inactive)	> 100 µM (inactive)	–	> 100 µM (inactive)	> 100 µM (inactive)	> 100 µM (inactive)	> 100 µM (inactive)	> 100 µM (inactive)	> 100 µM (inactive)	> 100 µM (inactive)	–	> 100 µM (inactive)	> 100 µM (inactive)	> 100 µM (inactive)
COc1ccc2c(O)c1-c1c(OC)ccc(c1O)SSc1ccc(OC)c(c1O)-c1c(OC)ccc(c1O)SS2	36.7 µM (inactive)	37.2 µM (inactive)	5.2 µM (inactive)	> 100 µM (inactive)	> 100 µM (inactive)	> 100 µM (inactive)	24.5 µM (inactive)	60.4 µM (inactive)	40.6 µM (inactive)	5.42 µM (inactive)	19.2 µM (inactive)	30 µM (inactive)	65.8 µM (inactive)	> 100 µM (inactive)	32.9 µM (inactive)	26.7 µM (inactive)	–	27.4 µM (inactive)	19.9 µM (inactive)	8.15 µM (inactive)

— ChEMBL document CHEMBL1201862, “PubChem BioAssay data set” (2004)
